The record followed here is patent publication US20210317134A1, “UBIQUITIN-SPECIFIC-PROCESSING PROTEASE 7 (USP7) MODULATORS AND USES THEREOF” (RAPT THERAPEUTICS, INC., priority 2019, published 2021).

The target of this test is USP7 (Homo sapiens, UniProt Q93009). The experiment in a line: USP7 inhibitory potency (Table 1). The format is biochemical.
Chain of USP7 (Q93009 whole entry): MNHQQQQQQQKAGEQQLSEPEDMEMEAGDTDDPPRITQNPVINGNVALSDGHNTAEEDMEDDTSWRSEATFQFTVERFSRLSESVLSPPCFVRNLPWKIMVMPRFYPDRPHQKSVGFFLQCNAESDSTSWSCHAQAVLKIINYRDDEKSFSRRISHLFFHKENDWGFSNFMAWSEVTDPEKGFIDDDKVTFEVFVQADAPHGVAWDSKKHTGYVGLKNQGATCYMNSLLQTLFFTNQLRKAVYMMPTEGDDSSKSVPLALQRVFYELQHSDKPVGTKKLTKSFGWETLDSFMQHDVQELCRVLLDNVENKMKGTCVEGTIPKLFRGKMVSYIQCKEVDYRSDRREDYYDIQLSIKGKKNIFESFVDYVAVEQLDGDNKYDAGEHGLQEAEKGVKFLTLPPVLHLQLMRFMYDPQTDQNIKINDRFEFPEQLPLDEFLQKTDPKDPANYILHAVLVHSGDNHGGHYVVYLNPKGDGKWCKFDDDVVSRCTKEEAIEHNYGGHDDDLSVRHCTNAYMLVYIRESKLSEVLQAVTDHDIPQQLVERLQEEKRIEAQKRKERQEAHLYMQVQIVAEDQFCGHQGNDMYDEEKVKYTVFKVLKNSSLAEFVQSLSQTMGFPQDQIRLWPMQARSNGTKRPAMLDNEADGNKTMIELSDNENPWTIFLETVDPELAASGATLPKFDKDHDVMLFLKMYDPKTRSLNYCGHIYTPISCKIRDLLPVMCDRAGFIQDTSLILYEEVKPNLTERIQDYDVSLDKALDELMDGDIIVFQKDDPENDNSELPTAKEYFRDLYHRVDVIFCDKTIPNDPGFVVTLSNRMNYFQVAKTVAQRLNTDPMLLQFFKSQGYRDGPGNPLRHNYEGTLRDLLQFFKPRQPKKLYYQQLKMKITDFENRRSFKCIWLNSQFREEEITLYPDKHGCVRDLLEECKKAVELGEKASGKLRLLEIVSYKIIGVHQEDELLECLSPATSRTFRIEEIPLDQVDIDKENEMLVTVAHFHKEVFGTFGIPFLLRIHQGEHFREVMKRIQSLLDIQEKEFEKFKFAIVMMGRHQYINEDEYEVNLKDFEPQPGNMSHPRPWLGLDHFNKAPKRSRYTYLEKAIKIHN

Take `COc1ccc(CN2C(=O)CN(Cc3cc4nccc(-c5cc(Cl)cc6c5O[C@@H](C(=O)N5CCNCC5)C6)c4s3)C2=O)cc1` [(R)-1-((7-(5-chloro-2-(piperazine-1-carbonyl)-2,3-dihydrobenzofuran-7-yl)thieno[3,2-b]pyridin-2-yl)methyl)-3-(4-methoxybenzyl)imidazolidine-2,4-dione]: the concentration for half-maximal inhibition (IC50) was < 1000 nM.

For `Cc1cc2c(-c3cc(Cl)cc4c3O[C@@H](c3onc5c3CNCC5)C4)ccnc2cc1C#N` [(R)-4-(5-chloro-2-(4,5,6,7-tetrahydroisoxazolo[4,3-c]pyridin-3-yl)-2,3-dihydrobenzofuran-7-yl)-6-methylquinoline-7-carbonitrile], the IC50 is 1000 to 10000 nM.

In turn, `O=C(C1Cc2cc(Cl)cc(-c3ccnc(O)c3)c2O1)N1CCNCC1` (centres unmarked) [(5-chloro-7-(2-hydroxypyridin-4-yl)-2,3-dihydrobenzofuran-2-yl)(piperazin-1-yl)methanone] registered an IC50 of 1000 to 10000 nM. In the case of `CC(NCc1cc2nccc(-c3cc(Cl)cc4c3O[C@@H](c3onc5c3CNCC5)C4)c2s1)C(F)(F)F` (stereo partly drawn) [N-((7-((R)-5-chloro-2-(4,5,6,7-tetrahydroisoxazolo[4,3-c]pyridin-3-yl)-2,3-dihydrobenzofuran-7-yl)thieno[3,2-b]pyridin-2-yl)methyl)-1,1,1-trifluoropropan-2-amine], the IC50 is < 1000 nM.

For `CCC(O)(C(=O)N(C)C)c1cc2nccc(-c3cc(Cl)cc4c3O[C@@H](C(=O)N3CCNCC3)C4)c2s1` (stereo partly drawn) [2-(7-((R)-5-chloro-2-(piperazine-1-carbonyl)-2,3-dihydrobenzofuran-7-yl)thieno[3,2-b]pyridin-2-yl)-2-hydroxy-N,N-dimethylbutanamide], the IC50 is < 1000 nM. The compound `O=C(C1Cc2cc(Cl)cc(-c3ccnc4[nH]ccc34)c2O1)N1CCC(N2CCCCC2)CC1` (centres unmarked) [1,4′-bipiperidin-1′-yl(5-chloro-7-(1H-pyrrolo[2,3-b]pyridin-4-yl)-2,3-dihydrobenzofuran-2-yl)methanone] yielded an IC50 of 1000 to 10000 nM. To `O=C([C@H]1Cc2cc(Cl)cc(-c3ccnc4[nH]ccc34)c2O1)N1CCC(CCO)CC1` [(R)-(5-chloro-7-(1H-pyrrolo[2,3-b]pyridin-4-yl)-2,3-dihydrobenzofuran-2-yl)(4-(2-hydroxyethyl)piperidin-1-yl)methanone] belongs 10000 to 30000 nM. As to `NC(=O)c1c[nH]c2nccc(-c3cc(Cl)cc4c3OC(C(=O)N3CCNCC3)C4)c12` (centres unmarked) [4-(5-chloro-2-(piperazine-1-carbonyl)-2,3-dihydrobenzofuran-7-yl)-1H-pyrrolo[2,3-b]pyridine-3-carboxamide], the IC50 is 1000 to 10000 nM.

`Cc1nc(-c2cc(Cl)cc3c2O[C@@H](c2onc4c2CNCC4)C3)c2sccc2n1` [(R)-3-(5-chloro-7-(2-methylthieno[3,2-d]pyrimidin-4-yl)-2,3-dihydrobenzofuran-2-yl)-4,5,6,7-tetrahydroisoxazolo[4,3-c]pyridine] had an IC50 of 10000 to 30000 nM.

`CC(=O)NCc1cc2ncnc(-c3cc(Cl)cc4c3O[C@@H](c3onc5c3CNCC5)C4)c2s1` [(R)-N-((4-(5-chloro-2-(4,5,6,7-tetrahydroisoxazolo[4,3-c]pyridin-3-yl)-2,3-dihydrobenzofuran-7-yl)thieno[3,2-d]pyrimidin-6-yl)methyl)acetamide]: the IC50 was < 1000 nM. The same measure for `N#Cc1ccc2c(-c3cc(Cl)cc4c3O[C@@H](c3onc5c3CNCC5)C4)ccnc2c1` [(R)-4-(5-chloro-2-(4,5,6,7-tetrahydroisoxazolo[4,3-c]pyridin-3-yl)-2,3-dihydrobenzofuran-7-yl)quinoline-7-carbonitrile]: < 1000 nM; for `CN(C)[C@H]1CCN(C(=O)[C@H]2Cc3cc(Cl)cc(-c4ccnc5cc(CO)sc45)c3O2)C1` [((R)-5-chloro-7-(2-(hydroxymethyl)thieno[3,2-b]pyridin-7-yl)-2,3-dihydrobenzofuran-2-yl)((S)-3-(dimethylamino)pyrrolidin-1-yl)methanone]: 1000 to 10000 nM; for `O=C([C@H]1Cc2cc(Cl)cc(-c3ccnc4cc(CO)sc34)c2O1)N1CCNCC1` [(R)-(5-chloro-7-(2-(hydroxymethyl)thieno[3,2-b]pyridin-7-yl)-2,3-dihydrobenzofuran-2-yl)(piperazin-1-yl)methanone]: < 1000 nM.

Turning to `CCC1(CO)Cc2nccc(-c3cc(Cl)cc4c3O[C@@H](C(=O)N3CCNCC3)C4)c2C1` (stereo partly drawn) [((2R)-5-chloro-7-(6-ethyl-6-(hydroxymethyl)-6,7-dihydro-5H-cyclopenta[b]pyridin-4-yl)-2,3-dihydrobenzofuran-2-yl)(piperazin-1-yl)methanone], the IC50 was in the range of 1000 to 10000 nM. The same measure for `O=C(C1Cc2cc(Cl)cc(-c3ccnc4ccc(Cl)cc34)c2O1)N1CCNCC1` (centres unmarked) [(5-chloro-7-(6-chloroquinolin-4-yl)-2,3-dihydrobenzofuran-2-yl)(piperazin-1-yl)methanone]: 10000 to 30000 nM; for `O=C(C1Cc2cc(Cl)cc(-c3ccnc4c3CCCC4)c2O1)N1CCNCC1` (centres unmarked) [(5-chloro-7-(5,6,7,8-tetrahydroquinolin-4-yl)-2,3-dihydrobenzofuran-2-yl)(piperazin-1-yl)methanone]: < 1000 nM; for `CCN1CCc2noc([C@H]3Cc4cc(Cl)cc(-c5ncnc6ccoc56)c4O3)c2C1` [(R)-3-(5-chloro-7-(furo[3,2-d]pyrimidin-4-yl)-2,3-dihydrobenzofuran-2-yl)-5-ethyl-4,5,6,7-tetrahydroisoxazolo[4,3-c]pyridine]: 1000 to 10000 nM.

On to `Cc1cc2ncnc(-c3cc(Cl)cc4c3O[C@@H](c3onc5c3CNCC5)C4)c2s1` [(R)-3-(5-chloro-7-(6-methylthieno[3,2-d]pyrimidin-4-yl)-2,3-dihydrobenzofuran-2-yl)-4,5,6,7-tetrahydroisoxazolo[4,3-c]pyridine], for which the IC50 was < 1000 nM. For `CC(C)N1CCc2noc([C@H]3Cc4cc(Cl)cc(-c5ccnc6ccsc56)c4O3)c2C1` [(R)-3-(5-chloro-7-(thieno[3,2-b]pyridin-7-yl)-2,3-dihydrobenzofuran-2-yl)-5-isopropyl-4,5,6,7-tetrahydroisoxazolo[4,3-c]pyridine], the IC50 was < 1000 nM. To `CC1(C(=O)N2CCNCC2)Cc2cc(Cl)cc(-c3ccnc4[nH]ccc34)c2O1` (centres unmarked) [(5-chloro-2-methyl-7-(1H-pyrrolo[2,3-b]pyridin-4-yl)-2,3-dihydrobenzofuran-2-yl)(piperazin-1-yl)methanone] belongs 1000 to 10000 nM; to `O=C1OCCN1Cc1cc2nccc(-c3cc(Cl)cc4c3O[C@@H](C(=O)N3CCNCC3)C4)c2s1` [(R)-3-((7-(5-chloro-2-(piperazine-1-carbonyl)-2,3-dihydrobenzofuran-7-yl)thieno[3,2-b]pyridin-2-yl)methyl)oxazolidin-2-one], < 1000 nM; to `CC(=O)NC(C)(C)c1cc2nccc(-c3cc(Cl)cc4c3O[C@@H](C(=O)N3CCNCC3)C4)c2s1` [(R)-N-(2-(7-(5-chloro-2-(piperazine-1-carbonyl)-2,3-dihydrobenzofuran-7-yl)thieno[3,2-b]pyridin-2-yl)propan-2-yl)acetamide], 1000 to 10000 nM. `CCC(CO)c1cc2nccc(-c3cc(Cl)cc4c3O[C@@H](C(=O)N3CCNCC3)C4)c2s1` (stereo partly drawn) [((2R)-5-chloro-7-(2-(1-hydroxybutan-2-yl)thieno[3,2-b]pyridin-7-yl)-2,3-dihydrobenzofuran-2-yl)(piperazin-1-yl)methanone]: the IC50 is < 1000 nM. The same measure for `COC(=O)NCc1cc2nccc(-c3cc(Cl)cc4c3O[C@@H](c3onc5c3CNCC5)C4)c2s1` [Methyl (R)-((7-(5-chloro-2-(4,5,6,7-tetrahydroisoxazolo[4,3-c]pyridin-3-yl)-2,3-dihydrobenzofuran-7-yl)thieno[3,2-b]pyridin-2-yl)methyl)carbamate]: < 1000 nM; for `FC(F)(F)CNCc1cc2nccc(-c3cc(Cl)cc4c3O[C@@H](c3onc5c3CNCC5)C4)c2s1` [(R)-N-((7-(5-chloro-2-(4,5,6,7-tetrahydroisoxazolo[4,3-c]pyridin-3-yl)-2,3-dihydrobenzofuran-7-yl)thieno[3,2-b]pyridin-2-yl)methyl)-2,2,2-trifluoroethan-1-amine]: < 1000 nM. To `O=C(C1Cc2cc(Cl)cc(-c3ccnc4[nH]ccc34)c2O1)N1CCC(c2ccncc2)CC1` (centres unmarked) [(5-chloro-7-(1H-pyrrolo[2,3-b]pyridin-4-yl)-2,3-dihydrobenzofuran-2-yl)(4-(pyridin-4-yl)piperidin-1-yl)methanone] belongs 1000 to 10000 nM. To `CC(=O)NCc1cc2nccc(-c3cc(Cl)cc4c3O[C@@H](c3onc5c3CNCC5)C4)c2s1` [(R)-N-((7-(5-chloro-2-(4,5,6,7-tetrahydroisoxazolo[4,3-c]pyridin-3-yl)-2,3-dihydrobenzofuran-7-yl)thieno[3,2-b]pyridin-2-yl)methyl)acetamide] belongs < 1000 nM; to `CN[C@@H]1CCCN(C(=O)[C@H]2Cc3cc(Cl)cc(-c4ccnc5ccsc45)c3O2)C1` [((R)-5-chloro-7-(thieno[3,2-b]pyridin-7-yl)-2,3-dihydrobenzofuran-2-yl)((R)-3-(methylamino)piperidin-1-yl)methanone], 10000 to 30000 nM; to `O=C([C@H]1Cc2cc(Cl)cc(-c3ccnc4c3CC(CN3C(=O)CCC3=O)C4)c2O1)N1CCNCC1` (stereo partly drawn) [1-((4-((R)-5-chloro-2-(piperazine-1-carbonyl)-2,3-dihydrobenzofuran-7-yl)-6,7-dihydro-5H-cyclopenta[b]pyridin-6-yl)methyl)pyrrolidine-2,5-dione], < 1000 nM. Consider `Cc1cc2nccc(-c3cc(Cl)cc4c3O[C@@H](c3onc5c3CNCC5)C4)c2s1` [(R)-3-(5-chloro-7-(2-methylthieno[3,2-b]pyridin-7-yl)-2,3-dihydrobenzofuran-2-yl)-4,5,6,7-tetrahydroisoxazolo[4,3-c]pyridine], for which the IC50 was < 1000 nM. The same measure for `O=C1CCC(=O)N1Cc1ccc2c(-c3cc(Cl)cc4c3O[C@@H](c3onc5c3CNCC5)C4)ccnc2c1` [(R)-1-((4-(5-chloro-2-(4,5,6,7-tetrahydroisoxazolo[4,3-c]pyridin-3-yl)-2,3-dihydrobenzofuran-7-yl)quinolin-7-yl)methyl)pyrrolidine-2,5-dione]: 1000 to 10000 nM; for `CCC(=O)NCc1cc2nccc(-c3cc(Cl)cc4c3O[C@@H](c3onc5c3CNCC5)C4)c2s1` [(R)-N-((7-(5-chloro-2-(4,5,6,7-tetrahydroisoxazolo[4,3-c]pyridin-3-yl)-2,3-dihydrobenzofuran-7-yl)thieno[3,2-b]pyridin-2-yl)methyl)propionamide]: < 1000 nM.

One may read the IC50 as the midpoint of a concentration-inhibition curve. High values mean weaker potency, low ones greater potency.
